According to paper PMC8362065, “Easily Available, Amphiphilic Diiron Cyclopentadienyl Complexes Exhibit in Vitro Anticancer Activity in 2D and 3D Human Cancer Cells through Redox Modulation Triggered by CO Release” (Chemistry (Weinheim an Der Bergstrasse, Germany), 2021):
Read-outs that look alike come from different tables or passages of the source. Marks after values point to notes of the source that are not given here.

Tests used:
[1] = target: T1, Lysozyme from chicken egg white (Gallus gallus, UniProt P00698); assay: Reactivity with model protein lysozyme, ESI-MS; details: 37 °C; for Reaction with lysozyme: compound/lysozyme 2 : 1, 24 h; for % Lysozyme methylation (alkylation): lysozyme:compound 1 : 2 molar ratio, 24 h, flow injection ESI-MS peak integrals
T1 construct: Lysozyme from chicken egg white (M=14 300 Da, 62971 Sigma‐Aldrich); purchased Sigma-Aldrich 62971; host or cells: chicken egg white (natural source)
T1 sequence (P00698 19-147): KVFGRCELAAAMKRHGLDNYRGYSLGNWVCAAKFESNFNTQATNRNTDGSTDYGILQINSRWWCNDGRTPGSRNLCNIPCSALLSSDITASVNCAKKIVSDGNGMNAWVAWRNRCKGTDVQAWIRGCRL
Procedure: To gain insights into the reactivity of the diiron compounds with possible biomolecular targets, we selected lysozyme, a small model protein often used to test interactions with metal compounds.[36] Following 24 h incubation at 37 °C, diiron compounds/lysozyme solutions (2 : 1 molar ratio) in ammonium acetate were filtered and analysed by ESI‐MS. In all cases, the original organometallic cation was identified as the major Fe‐containing compound in solution (Figures S33‐S40). Concerning the protein scaffold, the only identified adduct from the interaction with [2–3]^+ was the methylated derivative, which was also checked by HPLC separation (Figure S41). The expected diiron counterparts, that is, 1A–H, could not be detected possibly due to their water insolubility. The [lysozyme+Me^+] to [lysozyme] ratios, calculated on extracted ion chromatograms after protein peak reconstruction, are reported in Table 4. […] Methylation is a common post‐translational modification of protein/enzymes (methyltransferase enzymes) but it has also been observed as a result of the interaction of proteins with various electrophiles.[37]
Lysozyme from chicken egg white (M=14 300 Da, 62971 Sigma‐Aldrich) was stored at 4 °C as received. A stock solution was prepared by dissolving the powder protein (125 μM) and NH4OAc (1.25×10^−2 M)[56] in HPLC water and was immediately used. Stock solutions of diiron complexes (c Fe2 =1×10^−3 M) were prepared by dissolving the selected compound in DMSO (0.25 mL) or MeOH (0.7 mL; used only for [4G]BF4), then diluting with HPLC water up to 5.0 mL total volume. Next, aliquots of the Fe (0.50 mL) and lysozyme (2.0 mL) stock solutions were mixed and the final solution (Fe2 200 μM, lysozyme 100 μM, NH4OAc 10 mM; 1 % DMSO) was kept at 37 °C for 24 h. The resulting suspensions were centrifuged (RCF 805, 5 min; Hettich EBA 8G) to separate the orange‐brown precipitate. A blank solution (lysozyme only) was prepared and treated by the same procedure. Next, samples were diluted 1 : 20 (v/v) with a water/MeCN (1 : 1, v/v) solution containing 1 % formic acid and analysed by HPLC‐MS and flow injection MS. For HPLC analyses, elution was conducted with a MeCN/water linear gradient (90 : 10 to 5 : 95 v/v over 60 min), containing 0.05 % trifluoroacetic acid. The following compounds were identified by their MS pattern: [2A]^+ (t R=18.0 min), [2B]^+ (t R=13.8 min), [2C]^+ (t R=18.8 min), [2D]^+ (t R=17.0 min), [2E]^+ (t R=18.3 min), [2F]^+ (t R=9.7 min), [3F]^+ (t R=13.1 min), [4G]^+ (t R=23.0 min), [5H]^+ (t R=24.3 min), lysozyme‐CH3 (t R=21.0 min), lysozyme (t R=21.6 min). In all cases, the starting organometallic cation was identified as the major Fe‐containing compound in solution. Protein peaks pattern were obtained following peak reconstruction. Peak integrals for lysozyme and methyl lysozyme were calculated from the extracted ion chromatograms from the flow injection MS analysis (Table 4).

[2] = system: MCF‐7 ADR cells; assay: MTT assay, multidrug-resistant cancer cell model overexpressing P-gp; assay type: cell-based, human; details: for IC50: MCF‐7 ADR cells, 72 h, MTT; for RF=IC50 (resistant cells)/IC50 (wild‐type cells): MCF‐7 ADR vs MCF‐7, 72 h
Procedure: The antiproliferative activity was also investigated in a multidrug‐resistant cancer cell model overexpressing P‐gp (MCF‐7 ADR cells).
(§1) Compounds [2B]BF4, [2C]CF3SO3, [2D]CF3SO3 and [3F]CF3SO3 were dissolved in water while the other compounds were dissolved in the minimum DMSO amount prior to cell culture testing. A calculated amount of the stock drug DMSO solution was added to the cell culture media to reach a final maximum DMSO concentration of 0.5 %, which had no effects on cell viability.
(§2) Cell cultures. Human colon (HCT‐15), pancreatic (PSN‐1) and breast (MCF‐7) carcinoma cell lines along with human melanoma cells (A375) were obtained from American Type Culture Collection (ATCC, Rockville, MD). Embryonic kidney HEK293 cells were obtained from the European Collection of Cell Cultures (ECACC, Salisbury, UK). Human ovarian 2008 cancer cells were kindly provided by Prof. G. Marverti (Dept. of Biomedical Science of Modena University, Italy). MCF‐7 ADR cells were kindly provided by Prof. N. Colabufo (Dept. Pharmacy, University of Bari, Italy). Cell lines were maintained in the logarithmic phase at 37 °C in a 5 % CO2 atmosphere using the following culture media containing 10 % fetal calf serum (Euroclone, Milan, Italy), antibiotics (50 units/mL penicillin and 50 μg/mL streptomycin) and 2 mM L‐glutamine: i) RPMI‐1640 medium (Euroclone, Milan, Italy) for PSN‐1, 2008, HCT‐15, MCF‐7 and MCF‐7 ADR cells; ii) DMEM for A375 and HEK293 cells.
(§3) MTT assay. The growth inhibitory effect towards tumour cells was evaluated by means of MTT assay as previously described.[57] Briefly, 3–8×10^3 cells/well, dependent upon the growth characteristics of the cell line, were seeded in 96‐well microplates in growth medium (100 μL). After 24 h, the medium was removed and replaced with a fresh one containing the compound to be studied at the appropriate concentration. Triplicate cultures were established for each treatment. After 24 or 72 h, each well was treated with 10 μL of a 5 mg/mL MTT saline solution, and following 5 h of incubation, 100 μL of a sodium dodecyl sulfate (SDS) solution in HCl 0.01 M were added. After an overnight incubation, cell growth inhibition was detected by measuring the absorbance of each well at 570 nm using a Bio‐Rad 680 microplate reader. Mean absorbance for each drug dose was expressed as a percentage of the control untreated well absorbance and plotted against drug concentration. IC50 values, the drug concentrations that reduce the mean absorbance at 570 nm to 50 % of those in the untreated control wells, were calculated by the four‐parameter logistic (4‐PL) model. Evaluation was based on means from at least four independent experiments.

[3] = system: Human ovarian 2008 cancer cells; assay: MTT assay, 2D cell culture; assay type: cell-based; details: 2008 cells, 72 h
Procedure: as §1, §2, §3

[4] = system: human melanoma cells (A375); assay: MTT assay, 2D cell culture; assay type: cell-based; details: 72 h
Procedure: as §1, §2, §3

[5] = system: Human breast (MCF‐7) carcinoma cell line; assay: MTT assay, 2D cell culture; assay type: cell-based; details: MCF‐7 cells, 72 h
Procedure: as §1, §2, §3

[6] = system: Human pancreatic (PSN‐1) carcinoma cell line; assay: MTT assay, 2D cell culture; assay type: cell-based
Procedure: as §1, §2, §3

[7] = system: Human colon (HCT‐15) carcinoma cell line; assay: MTT assay, 2D cell culture; assay type: cell-based; details: HCT‐15 cells, 72 h
Procedure: as §1, §2, §3

[8] = PSN-1 cells, 24 h, read-out: IC50 (µM) ± SD
[9] = PSN‐1 cells, 72 h, read-out: IC50 (μM)±SD

| Reaction with lysozyme [1] | % Lysozyme methylation (alkylation) [1] | IC50 [2] | RF=IC50 (resistant cells)/IC50 (wild‐type cells) [2] | IC50 [3] | IC50 [4] | IC50 [5] | IC50 [6, 8] | IC50 [6, 9] | IC50 [7] | Substance |
| --- | --- | --- | --- | --- | --- | --- | --- | --- | --- | --- |
| did not react with lysozyme | 0 %^[b] | 44.7 ± 6.1 µM | 1.2 | 37.4 ± 5.2 µM | 30.8 ± 5.1 µM | 36.2 ± 6.1 µM | 112 ± 2.4 µM | 33.7 ± 4.2 µM | 32.5 ± 4.8 µM | [Fe2Cp2(CO)2(μ‐CO){μ‐CNBn2}]X [[5H]CF3SO3] |
| did not react with lysozyme | 0 %^[b] | 26.9 ± 5.1 µM | 1.3 | 38.8 ± 6.9 µM | 26.2 ± 5.6 µM | 21.4 ± 3.6 µM | 69.5 ± 2.1 µM | 25.6 ± 4.5 µM | 22.9 ± 5.8 µM | [Fe2Cp2(CO)2(μ‐CO){μ‐CNEt(2‐naphthyl)}]BF4 [[4G]BF4] |
| – | 45% | 84.5 ± 8.5 µM | 1.3 | 55.5 ± 4.8 µM | 50.8 ± 6.1 µM | 63.2 ± 5.5 µM | 144 ± 16 µM | 54.3 ± 6.2 µM | 69.5 ± 6.7 µM | [Fe2Cp2(CO)2(μ‐CO){μ‐CNMe(1H‐indol‐6‐yl)}]CF3SO3 [[2A]CF3SO3] |
| – | 47% | > 100 µM | – | > 100 µM | > 100 µM | > 100 µM | > 200 µM | > 100 µM | > 100 µM | [Fe2Cp2(CO)2(μ‐CO){μ‐CNMe(CH2CHCH2)}]X [[3F]CF3SO3] |
| – | 49% | > 100 µM | – | > 100 µM | > 100 µM | > 100 µM | > 200 µM | > 100 µM | > 100 µM | [Fe2Cp2(CO)2(μ‐CO){μ‐CNMe(CH2PO3Et2)}]X [[2B]BF4] |

| Substance | Reaction with lysozyme [1] | % Lysozyme methylation (alkylation) [1] | IC50 [2] | RF=IC50 (resistant cells)/IC50 (wild‐type cells) [2] | IC50 [3] | IC50 [4] | IC50 [5] | IC50 [6, 8] | IC50 [6, 9] | IC50 [7] |
| --- | --- | --- | --- | --- | --- | --- | --- | --- | --- | --- |
| [Fe2Cp2(CO)2(μ‐CO){μ‐CNMe(4‐C6H4OMe)}]CF3SO3 [[2D]CF3SO3] | – | 31% | 22.6 ± 4.2 µM | 1.6 | 21.3 ± 3.1 µM | 15.5 ± 2.6 µM | 14.3 ± 2.6 µM | 35 ± 2 µM | 16.2 ± 2.9 µM | 15.6 ± 3.5 µM |
| [Fe2Cp2(CO)2(μ‐CO){μ‐CNMe(C6H11)}]X [[2C]CF3SO3] | – | 50% | 23.3 ± 4.1 µM | 1.3 | 28.4 ± 5.4 µM | 16.8 ± 2.1 µM | 17.3 ± 3.3 µM | 94.2 ± 3.8 µM | 15.3 ± 2.7 µM | 9.2 ± 1.8 µM |
